Test results as given in ChEMBL document CHEMBL4346683 (Eur J Med Chem, 2019).
In brackets after ≈: the same amount, converted by molar mass. Activity calls are given as the source filed them. No cut-off for these calls is given here.

Key:
[1] = system: Escherichia coli; assay: Antibacterial activity against Escherichia coli ATCC 25922 assessed as inhibition of bacterial growth incubated for 24 hrs by TTC double broth dilution method; format: functional; conditions: ATCC 25922, 24 h
[2] = system: Pseudomonas aeruginosa; assay: Antibacterial activity against Pseudomonas aeruginosa ATCC 27853 assessed as inhibition of bacterial growth incubated for 24 hrs by TTC double broth dilution method; format: functional; conditions: ATCC 27853, 24 h
[3] = system: Bacillus subtilis; assay: Antibacterial activity against Bacillus subtilis ATCC 530 assessed as inhibition of bacterial growth incubated for 24 hrs by TTC double broth dilution method; format: functional; conditions: ATCC 530, 24 h
[4] = system: Staphylococcus aureus; assay: Antibacterial activity against Staphylococcus aureus ATCC 25923 assessed as inhibition of bacterial growth incubated for 24 hrs by TTC double broth dilution method; format: functional; conditions: ATCC 25923, 24 h
[5] = biological target: T1, 3-oxoacyl-[acyl-carrier-protein] synthase 3 (Escherichia coli, UniProt C3TDZ2); assay: Inhibition of Escherichia coli FabH in presence of radiolabelled substrates and acetyl-coA by enzyme coupled FabD/FabH assay system
T1 sequence (C3TDZ2 whole entry): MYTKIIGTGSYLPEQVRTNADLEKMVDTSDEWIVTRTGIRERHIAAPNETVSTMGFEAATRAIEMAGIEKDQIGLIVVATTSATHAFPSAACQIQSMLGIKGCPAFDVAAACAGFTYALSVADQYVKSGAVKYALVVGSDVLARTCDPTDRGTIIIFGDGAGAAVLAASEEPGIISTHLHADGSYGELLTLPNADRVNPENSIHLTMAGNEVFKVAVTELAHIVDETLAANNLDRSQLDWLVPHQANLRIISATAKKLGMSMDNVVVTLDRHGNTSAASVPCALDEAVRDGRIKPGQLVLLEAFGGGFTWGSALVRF

[6] = Cytotoxicity against human 293T cells assessed as reduction in cell viability incubated for 24 hrs by MTT assay; format: cell-based; conditions: HEK-293T cells
[7] = Induction of hemolysis in human erythrocytes assessed as hemoglobin release incubated for 3 hrs by spectrophotometric analysis; format: cell-based; conditions: erythrocyte
[8] = system: Xanthomonas oryzae pv. oryzae; assay: Antibacterial activity against wild type Xanthomonas oryzae pv. oryzae KACC10331 expressing FabH assessed as reduction in bacterial growth; format: functional
[9] = system: Xanthomonas oryzae pv. oryzae; assay: Antibacterial activity against wild type Xanthomonas oryzae pv. oryzae KACC10331 expressing FabH assessed as reduction in bacterial growth at 5 ug/ml; format: functional, organism-based
[10] = system: Staphylococcus aureus; assay: Antibacterial activity against Staphylococcus aureus; format: functional
[11] = system: Enterococcus faecium; assay: Antibacterial activity against Enterococcus faecium; format: functional
[12] = system: Streptococcus pneumoniae; assay: Antibacterial activity against Streptococcus pneumoniae; format: functional

Row | Compound | MIC [1] [µg/mL] | MIC [2] [µg/mL] | MIC [3] [µg/mL] | MIC [4] [µg/mL] | IC50 [5] [µM] | CC50 at 24 h [6] [µM] | LC30 [7] [µg/mL] | MIC [8] [µg/mL] | inhibition [9] | MIC [10] [µg/mL] | MIC [11] [µg/mL] | MIC [12] [µg/mL]
1 | Cc1ccccc1C(=O)n1c(-c2cn(-c3ccccc3)nc2-c2ccc(F)cc2)nc2ccccc21 | > 62.5 | > 62.5 | 62.5 (≈ 132 µM) | > 62.5 | 37.2 | 189 | > 10000 | – | – | – | – | –
2 | Cc1cncc(C(=O)n2c(-c3cn(-c4ccccc4)nc3-c3ccc(F)cc3)nc3ccccc32)c1 | 62.5 (≈ 132 µM) | 62.5 (≈ 132 µM) | 15.6 (≈ 32.9 µM) | 62.5 (≈ 132 µM) | 22.1 | 119 | > 10000 | – | – | – | – | –
3 | NC[C@H]1O[C@H](O[C@H]2[C@H](O)[C@@H](O[C@H]3O[C@H](CO)[C@@H](O)[C@H](N)[C@H]3O)[C@H](N)C[C@@H]2N)[C@H](N)[C@@H](O)[C@@H]1O [BEKANAMYCIN] | 1.95 (≈ 4.03 µM) | 3.9 (≈ 8.07 µM) | 0.98 (≈ 2.03 µM) | 0.98 (≈ 2.03 µM) | – | – | – | – | – | – | – | –
4 | Cc1cccc(C(=O)n2c(-c3cn(-c4ccccc4)nc3-c3ccc(C(F)(F)F)cc3)nc3ccccc32)c1 | 62.5 (≈ 120 µM) | 31.2 (≈ 59.8 µM) | 31.2 (≈ 59.8 µM) | > 62.5 | 34.9 | 154 | > 10000 | – | – | – | – | –
5 | Cc1ccc(-c2nn(-c3ccccc3)cc2-c2nc3ccccc3n2C(=O)c2cccc(C)c2)cc1 | 62.5 (≈ 133 µM) | 62.5 (≈ 133 µM) | 31.2 (≈ 66.7 µM) | > 62.5 | 33.2 | 195 | > 10000 | – | – | – | – | –
6 | Cc1cncc(C(=O)n2c(-c3cn(-c4ccccc4)nc3-c3ccc(C(F)(F)F)cc3)nc3ccccc32)c1 | 62.5 (≈ 119 µM) | 62.5 (≈ 119 µM) | 0.98 (≈ 1.87 µM) | 62.5 (≈ 119 µM) | 22.9 | 123 | > 10000 | 7.82 (≈ 14.9 µM) | Active | – | – | –
7 | Cc1ccc(C(=O)n2c(-c3cn(-c4ccccc4)nc3-c3ccc(C(F)(F)F)cc3)nc3ccccc32)cc1 | 62.5 (≈ 120 µM) | > 62.5 | 3.9 (≈ 7.46 µM) | > 62.5 | 31.8 | 169 | > 10000 | – | – | – | – | –
8 | Cc1ccc(-c2nn(-c3ccccc3)cc2-c2nc3ccccc3n2C(=O)c2ccccc2C)cc1 | 62.5 (≈ 133 µM) | > 62.5 | 62.5 (≈ 133 µM) | > 62.5 | 35.4 | 176 | > 10000 | – | – | – | – | –
9 | Cc1ccc(C(=O)n2c(-c3cn(-c4ccccc4)nc3-c3ccc(F)cc3)nc3ccccc32)cn1 | 1.95 (≈ 4.12 µM) | 62.5 (≈ 132 µM) | 0.98 (≈ 2.07 µM) | 62.5 (≈ 132 µM) | 4.02 | 137 | > 10000 | 15.6 (≈ 33 µM) | – | – | – | –
10 | Cc1ccccc1C(=O)n1c(-c2cn(-c3ccccc3)nc2-c2ccc(C(F)(F)F)cc2)nc2ccccc21 | > 62.5 | > 62.5 | 62.5 (≈ 120 µM) | > 62.5 | 36.5 | 179 | > 10000 | – | – | – | – | –
11 | Cc1ccc(C(=O)n2c(-c3cn(-c4ccccc4)nc3-c3ccc(C)cc3)nc3ccccc32)cc1 | 3.9 (≈ 8.32 µM) | 31.2 (≈ 66.7 µM) | 0.98 (≈ 2.09 µM) | > 62.5 | 3.06 | 176 | > 10000 | – | – | – | – | –
12 | O=C(c1cccnc1)n1c(-c2cn(-c3ccccc3)nc2-c2ccc(C(F)(F)F)cc2)nc2ccccc21 | 62.5 (≈ 123 µM) | 62.5 (≈ 123 µM) | 1.95 (≈ 3.83 µM) | 62.5 (≈ 123 µM) | 15.2 | 158 | > 10000 | 15.6 (≈ 30.7 µM) | – | – | – | –
13 | C[C@]12C[C@@]34C=CC(=O)[C@@](C)(CCC(=O)Nc5c(O)ccc(C(=O)O)c5O)[C@@H]3[C@H](C[C@@H]1C4)O2 | – | – | – | – | – | – | – | – | – | 0.5 to 1 (≈ 1.13 to 2.27 µM) | 0.5 to 1 (≈ 1.13 to 2.27 µM) | 0.5 to 1 (≈ 1.13 to 2.27 µM)
14 | O=C(c1ccc(Cl)cc1)n1c(-c2cn(-c3ccccc3)nc2-c2ccc(C(F)(F)F)cc2)nc2ccccc21 | 62.5 (≈ 115 µM) | 31.2 (≈ 57.6 µM) | 62.5 (≈ 115 µM) | > 62.5 | 39.8 | 181 | > 10000 | – | – | – | – | –
15 | Cc1ccc(C(=O)n2c(-c3cn(-c4ccccc4)nc3-c3ccc(C(F)(F)F)cc3)nc3ccccc32)cn1 | 1.95 (≈ 3.72 µM) | 62.5 (≈ 119 µM) | 0.49 (≈ 0.936 µM) | 62.5 (≈ 119 µM) | 2.05 | 153 | > 10000 | – | – | – | – | –
